Assay results from publication PMC6272152, “The Role of Phosphoglycans in the Susceptibility of Leishmania mexicana to the Temporin Family of Anti-Microbial Peptides” (Molecules, 2015).

Tests used:
[1] = test system: L. mexicana ∆lpg2 promastigotes (lacking LPG and PPG); assay: alamarBlue viability assay, ∆lpg2 mutant promastigotes; format: cell-based, Leishmania mexicana; conditions: for ED50 L. mexicana ∆lpg2: ∆lpg2 mutant promastigotes, alamarBlue viability vs DMSO control, 2–100 µM peptide, 1 h preincubation serum-free at 26 °C, then 24 h, mean (range) of at least 3 independent experiments in triplicate
Experimental: (§1) Figure 2 Activity of the temporin peptides against ∆lpg1 and ∆lpg2 promastigote L. mexicana. Using the alamarBlue® assay system, L. mexicana ∆lpg1 (A) and ∆lpg2 (B) mutant promastigote viability in the presence of various concentrations (2–100 µM) of the temporin peptides was determined with respect to a DMSO control. Amphotericin B (2–100 µM) was utilized as a positive control. Data points represent the mean of 3 independent experiments performed in triplicate. Standard deviation indicated. Cell viability <50% indicated by red bars.
Proteophosphogylcans (PPGs) are a large range of secreted and cell surface associated parasite glycoconjugates which, like LPG, carry a negative charge. Both axenic and intramacrophage L. mexicana amastigotes lack cell surface associated PPG, although the intracellular parasites do secrete a form of PPG known as aPPG [26, 27]. Targeted deletion of lpg2, a Golgi GDP-Man transporter, to create ∆lpg2 [25] prevented the formation of the phosphoglycan repeats that make up the backbone of LPG and PPG leaving the promastigote surface devoid of these negatively charged macromolecules. […] Like the temporins, amphotericin B is a pore forming compound [28].
(§2) Leishmania mexicana (MNYC/BZ/62/M379) wild type and LPG mutant parasites (∆lpg1 [23] and ∆lpg2 [25]) were maintained at 26 °C in Schneider’s Drosophila media (Sigma Aldrich) supplemented with heat inactivated foetal bovine sera (15% for promastigotes and mutants, and 20% for amastigotes; Biosera). Promastigotes were transformed into axenic amastigotes by a pH and temperature shift as previously described. Cells were counted using a Neubauer Improved Haemocytometer. Cytotoxicity analyses were performed in 96-well plates (Costar, Corning Inc., Amsterdam, The Netherlands) using alamarBlue® (Life Technologies, Paisley, UK) with some modifications to the published, optimized protocol. Briefly, to mitigate against the effects of serum on the efficacy of the peptides, promastigote and amastigote L. mexicana were preincubated (26 °C for promatastigotes; 33 °C for amastigotes) with the temporins (2–100 µM) in 10 µL of serum-free media at 4 × 10^6 mL^−1 for 1 h before the addition of 90 µL of complete media. Following incubation at the appropriate temperature for 24 h, 10 µL of alamarBlue® was added to each well and the plates incubated for a further 4 h prior to assessing cell viability using a fluorescent plate reader (Biotek UK, Potton, UK; 560EX nm/600EM nm). All data points were in triplicate, with amphotericin B as positive and DMSO as negative controls. All of the experiments described above were carried out on a minimum of three separate occasions to ensure a robust data set was collected.

[2] = test system: L. mexicana ∆lpg1 promastigotes (lacking LPG); assay: alamarBlue viability assay, ∆lpg1 mutant promastigotes; format: cell-based, Leishmania mexicana; conditions: alamarBlue viability vs DMSO control, 2–100 µM peptide, 1 h preincubation serum-free at 26 °C, then 24 h, mean (range) of at least 3 independent experiments in triplicate
Experimental: Previously it has been postulated that LPG, which forms a thick negatively charged layer, protects the promatigote parasite from cationic AMPs by capturing them and preventing interaction with the cell surface. […] To test this hypothesis the five temporins were assayed for their activity against L. mexicana promastigotes engineered to lack LPG, ∆lpg1 [23]. […] The results obtained were perhaps surprising, with the temporins showing little or no difference in efficacy against the ∆lpg1 mutant when compared with the wild type L. mexicana promastigotes (Figure 1A and Figure 2A; Table 2). However, it is notable the that efficacy of temporins A and B have previously been reported to be unchanged against a similar, although less defined, L. donovani LPG mutant.
as §1, §2

L. mexicana amastigote = assay: alamarBlue viability assay, axenic amastigotes; format: cell-based, Leishmania mexicana (MNYC/BZ/62/M379); conditions: for ED50 L. mexicana Amastigote: alamarBlue viability vs DMSO control, 2–100 µM peptide, 1 h preincubation in serum-free media at 33 °C, then complete media 24 h, alamarBlue 4 h, fluorescence, mean (range) of at least 3 independent experiments in triplicate
Experimental: as §1, with “Figure 1” for “Figure 2”, “against wild type promastigote” for “against ∆lpg1”, “and amastigote” for “and ∆lpg2 promastigote”, “mexicana promastigote” for “mexicana ∆lpg1”, “and amastigote” for “and ∆lpg2”, “(B)” for “(B) mutant promastigote”
as §2

[3] = test system: L. mexicana promastigote (wild type); assay: alamarBlue viability assay, wild type promastigotes; format: cell-based, Leishmania mexicana (MNYC/BZ/62/M379); conditions: alamarBlue viability vs DMSO control, 2–100 µM peptide, 1 h preincubation in serum-free media at 26 °C, then complete media 24 h, alamarBlue 4 h, fluorescence, mean (range) of at least 3 independent experiments in triplicate
Experimental: as §1, with “Figure 1” for “Figure 2”, “against wild type promastigote” for “against ∆lpg1”, “and amastigote” for “and ∆lpg2 promastigote”, “mexicana promastigote” for “mexicana ∆lpg1”, “and amastigote” for “and ∆lpg2”, “(B)” for “(B) mutant promastigote”
as §2

[4] = test system: L. pifanoi axenic amastigotes; conditions: cited from earlier work
From the text: (§3) L. infantum is an Old World species and a member of the L. donovani complex, causing visceral disease in the Mediterranean basin, which has subsequently spread to Latin America where it is sometimes known as L. chagasi. Like L. mexicana, L. pifanoi is a New World species, however it is part of the subgenus Viannia whereas L. mexicana is part of the subgenus Leishmania which actually makes it ...

L. donovani LPG mutant = conditions: similar, less defined LPG mutant; cited from earlier work
From the text: Previously it has been postulated that LPG, which forms a thick negatively charged layer, protects the promatigote parasite from cationic AMPs by capturing them and preventing interaction with the cell surface. […] To t ...

[5] = test system: L. infantum axenic amastigotes; conditions: cited from earlier work
From the text: as §3

FVQWFSKFLGRIL-NH2 [Temporin L, amphibian-derived temporin antimicrobial peptide, …-NH2]
ED50 L. mexicana ∆lpg2 [1]: 9 (8–12) µM
ED50 L. mexicana ∆lpg2 ([1]; listed as L): 9 µM
ED50 L. mexicana ∆lpg1 [2]: 4 (3–6) µM
ED50 L. mexicana Amastigote (L. mexicana amastigote): 83 (46–93) µM
ED50 L. mexicana Amastigote (L. mexicana amastigote; listed as L): 83 µM
ED50 L. mexicana Promastiogte [3]: 5 (5–6) µM
ED50 L. mexicana Promastiogte ([3]; listed as L): 5 µM

LLPIVGNLLKSLL-NH2 [Temporin B, amphibian-derived temporin antimicrobial peptide, […]-NH2]
ED50 L. mexicana ∆lpg2 [1]: 41 (40–41) µM
ED50 L. mexicana ∆lpg1 [2]: 39 (28–70) µM
activity against amastigote form at the maximal concentration tested (L. mexicana amastigote; 100 µM, alamarBlue): inactive
ED50 L. mexicana Amastigote (L. mexicana amastigote): >100 µM
activity against axenic amastigotes of L. pifanoi [4]: significant activity
efficacy against L. donovani LPG mutant (L. donovani LPG mutant): unchanged
ED50 L. mexicana Promastiogte [3]: 38 (24–64) µM
ED50 L. mexicana Promastiogte ([3]; listed as temporin B): 38 µM

FLPLIGRVLSGIL-NH2 [Temporin A, amphibian-derived temporin antimicrobial peptide, […]-NH2]
ED50 L. mexicana ∆lpg2 [1]: 26 (21–39) µM
ED50 L. mexicana ∆lpg2 ([1]; listed as temporin A): 26 µM
ED50 L. mexicana ∆lpg1 [2]: 11 (8–16) µM
ED50 L. mexicana Amastigote (L. mexicana amastigote): ~100 µM
ED50 L. mexicana Amastigote (L. mexicana amastigote; listed as temporin A): approximately 100 µM
activity against axenic amastigotes of L. pifanoi [4]: significant activity
efficacy against L. donovani LPG mutant (L. donovani LPG mutant): unchanged
ED50 L. mexicana Promastiogte [3]: 8 (6–14) µM
ED50 L. mexicana Promastiogte ([3]; listed as temporin A): 8 µM

C[C@@H]1[C@H](O)[C@@H](C)/C=C/C=C/C=C/C=C/C=C/C=C/C=C/[C@H](O[C@@H]2O[C@H](C)[C@@H](O)[C@H](N)[C@@H]2O)C[C@@H]2O[C@](O)(C[C@@H](O)C[C@@H](O)[C@H](O)CC[C@@H](O)C[C@@H](O)CC(=O)O[C@H]1C)C[C@H](O)[C@H]2C(=O)O [amphotericin B, Amphotericin B, reference compound]
efficacy against ∆lpg2 compared with wild type promastigotes ([1]; positive control, 2–100 µM, alamarBlue, Figure 2B): less effective

FLSGIVGMLGKLF-NH2 [Temporin 1Sa, amphibian-derived temporin antimicrobial peptide, […]-NH2]
ED50 L. mexicana ∆lpg2 [1]: 31 (28–35) µM
ED50 L. mexicana ∆lpg2 ([1]; listed as 1Sa): 31 µM
ED50 L. mexicana ∆lpg1 [2]: 6 (3–18) µM
ED50 L. mexicana Amastigote (L. mexicana amastigote): 42 (35–44) µM
ED50 L. mexicana Amastigote (L. mexicana amastigote; listed as 1Sa): 42 µM
activity against axenic amastigotes of L. infantum [5]: significant activity
ED50 L. mexicana Promastiogte [3]: 4 (3–13) µM
ED50 L. mexicana Promastiogte ([3]; listed as temporin 1Sa): 4 µM
